Measured values taken from patent EP0012729A1, “Therapeutic compositions containing as active compound a substituted acetic acid or its salt” ("IBIS" ISTITUTO BIOCHIMICO SPERIMENTALE S.p.A., priority 1978, dated 1980).

Assays:
Wistar rats = assay: Choleretic activity in the rat, bile fistula method; type: in vivo; conditions: for ml of bile flow ± s.e.: second series
Source text: It is known that the primary effect of a choleretic agent is to increase the bile flow and the quantity of solid substances excreted with the bile. A good choleretic must provide this effect in a sufficiently intense and prolonged manner. In addition, as in the case of all drugs, it must have low acute toxicity and good general tolerability, but in particular must be free from toxic effects on the organ on which it is required to act, i.e. the liver, whether this is in a normal or pathological state. The analysis of the new product in comparison with the best known products for the same therapeutic use has therefore been focused on these aspects. The choleretic activity of the new product has been determined in the rat by using the bile fistula method. Wistar rats of both sexes and having a weight of between 180 and 240 g were used.
The animals, which were kept fasting for 12 hours but with free access to water, were narcotised by ethyl urethane in a dose of 1 g/kg by intra peritoneal or intramuscular injection.
After binding the animals to the retention bed, a median laparatomy was carried out, and when the bile duct had been isolated a cannula needle was inserted into it. A polythene tube was then inserted into those ani mals which were to receive the products intraduodenally, after which a su ture was carried out on the abdominal wall, and the bile was allowed to discharge for 30 minutes after inserting the cannula in the bile duct, so as to allow the discharge to become normal. The bile was then collec ted for one hour.
Having determined the volume of bile discharged during this first hour of collection (base volume), the products under examination were administered at the predetermined doses and by the predetermined methods. The bile excreted by the individual animals was then collected over each hour for a further six hours.
During the experiments, the animals were kept at ambient temperature of about 22°C, and at regular intervals of two hours received 10 ml/kg of physiological solution s.c.
The liquids were administered at a temperature of 37°C.
The bile flow and cholesterol excretion were determined on those bile fractions excreted by the animals over each hour starting from the base hour until the end of the experiment
The dry residue (R.So) was determined on the bile fraction excreted during the base hour and on the total bile fractions excreted during the sub sequent hours. For practical reasons, the determination of the dry residue and of the cholesterol (carried out by the Sperry & Webb method) were carried out on the pool of bile excreted by the entire group of animals subjected to the same treatment instead of on the bile fractions excreted by the individual animals (which was sometimes insufficient for determining the cholesterol).
In compiling the graphs, the differences between the choleresis in the treated animals and that in the controls was calculated over the considered time intervals, and expressed as a percentage of the base choleresis. For this calculation, the following formula was used: [formula] where Cn and C' represent the choleresis (in ml/kg/h for the bile flow, and in mg/kg/h for the dry residue) determined over the considered time interval for the group of treated animals and the group of controls respectively. Cb and C'b represent the base choleresis in the group of treated animals and group of controls respectively.
This index was calculated as the time for halving the maximum choleresis increase recorded under their effect.

[1] = Acute toxicity (DL50) in mus musculus; conditions: in vivo
Source text: The DL50 for the α-methyl-α-(3,4-dihydro-1-naphtyl)acetic acid (1.620) determined in the mus musculus had the following values: • DL50 by oral administration = 1663 (1451-1905) mg/kg • DL50 by i.^p. administration = 1383 (1226-1559) mg/kg

rat = assay: Prolonged administration for 180 consecutive days, tolerability; type: in vivo; conditions: 50 mg/kg/die for 180 consecutive days
[2] = Acute toxicity (DL50) in the rat; conditions: in vivo
Source text: The determination in the rat gave the following values: • DL50 by oral administration = 1720 (1520-1921) mg/kg • DL50 by i.p. administration = 1339 (1270-1744) mg/kg

[3] = ip, read-out: DL50 by i.p. administration
[4] = oral, read-out: DL50 by oral administration

With `CC(C(=O)O)C1=CCCc2ccccc21` (stereo not drawn) [1.620, α-methyl-α-(3,4-dihydro-1-naphthyl)-acetic acid] the Flow (Wistar rats; 25 mg/kg i.d., 0 (base hour)) was 2,66±0,16 ml/kg/h, the Flow (Wistar rats; 25 mg/kg i.d., 1 h) was 4,24±0,25 ml/kg/h and the Flow (Wistar rats; 25 mg/kg i.d., 2 h) was 3,21±0,10 ml/kg/h. For the same compound, the Flow (Wistar rats; 25 mg/kg i.d., 3 h) was 2,89±0,10 ml/kg/h, the Flow (Wistar rats; 25 mg/kg i.d., 4 h) was 2,44±0,15 ml/kg/h and the Flow (Wistar rats; 25 mg/kg i.d., 5 h) was 2,20±0,14 ml/kg/h. The Flow (Wistar rats; 25 mg/kg i.d., 6 h) was 1,68±0,05 ml/kg/h, the Flow (Wistar rats; 25 mg/kg p.o., 0 (base hour)) was 3,05±0,33 ml/kg/h and the Flow (Wistar rats; 25 mg/kg p.o., 1h) was 3,89±0,47 ml/kg/h. For the same compound, the Flow (Wistar rats; 25 mg/kg p.o., 2h) was 3,13±0,24 ml/kg/h, the Flow (Wistar rats; 25 mg/kg p.o., 3h) was 2,84±0,21 ml/kg/h and the Flow (Wistar rats; 25 mg/kg p.o., 4h) was 2,35±0,19 ml/kg/h. The Flow (Wistar rats; 25 mg/kg p.o., 5h) was 2,05±0,21 ml/kg/h, the Flow (Wistar rats; 25 mg/kg p.o., 6h) was 1,87±0,39 ml/kg/h and the Flow (Wistar rats; 50 mg/kg i.d., 0 (base hour)) was 2,04±0,11 ml/kg/h. For the same compound, the Flow (Wistar rats; 50 mg/kg i.d., 1 h) was 3,90±0,28 ml/kg/h, the Flow (Wistar rats; 50 mg/kg i.d., 2 h) was 3,57±0,16 ml/kg/h and the Flow (Wistar rats; 50 mg/kg i.d., 3 h) was 2,69±0,09 ml/kg/h. For the same compound, the Flow (Wistar rats; 50 mg/kg i.d., 4 h) was 2,20±0,07 ml/kg/h, the Flow (Wistar rats; 50 mg/kg i.d., 5 h) was 2,00±0,10 ml/kg/h and the Flow (Wistar rats; 50 mg/kg i.d., 6 h) was 1,63±0,08 ml/kg/h. For the same compound, the Flow (Wistar rats; 50 mg/kg p.o., 0 (base hour)) was 2,76±0,09 ml/kg/h, the Flow (Wistar rats; 50 mg/kg p.o., 1h) was 4,90±0,16 ml/kg/h and the Flow (Wistar rats; 50 mg/kg p.o., 2h) was 3,74±0,13 ml/kg/h. For the same compound, the Flow (Wistar rats; 50 mg/kg p.o., 3h) was 3,34±0,13 ml/kg/h, the Flow (Wistar rats; 50 mg/kg p.o., 4h) was 2,73±0,07 ml/kg/h and the Flow (Wistar rats; 50 mg/kg p.o., 5h) was 2,60±0,08 ml/kg/h. The Flow (Wistar rats; 50 mg/kg p.o., 6h) was 2,25±0,09 ml/kg/h, the Flow (Wistar rats; 100 mg/kg i.d., 0 (base hour)) was 2,53±0,09 ml/kg/h and the Flow (Wistar rats; 100 mg/kg i.d., 1 h) was 6,61±0,27 ml/kg/h. The Flow (Wistar rats; 100 mg/kg i.d., 2 h) was 5,94±0,23 ml/kg/h, the Flow (Wistar rats; 100 mg/kg i.d., 3 h) was 4,12±0,14 ml/kg/h and the Flow (Wistar rats; 100 mg/kg i.d., 4 h) was 3,23±0,07 ml/kg/h. The Flow (Wistar rats; 100 mg/kg i.d., 5 h) was 2,74±0,06 ml/kg/h, the Flow (Wistar rats; 100 mg/kg i.d., 6 h) was 2,23±0,06 ml/kg/h and the Flow (Wistar rats; 100 mg/kg p.o., 0 (base hour)) was 2,40±0,23 ml/kg/h. The Flow (Wistar rats; 100 mg/kg p.o., 1h) was 4,44±0,28 ml/kg/h, the Flow (Wistar rats; 100 mg/kg p.o., 2h) was 4,95±0,39 ml/kg/h and the Flow (Wistar rats; 100 mg/kg p.o., 3h) was 4,10±0,32 ml/kg/h. The Flow (Wistar rats; 100 mg/kg p.o., 4h) was 3,10±0,31 ml/kg/h, the Flow (Wistar rats; 100 mg/kg p.o., 5h) was 2,79±0,23 ml/kg/h and the Flow (Wistar rats; 100 mg/kg p.o., 6h) was 2,33±0.25 ml/kg/h. The “Peak choleresis time of appearance” value (Wistar rats; 200 mg/kg p.o. (dose given for 1620 only)) was 2nd hour, the “Peak choleresis % increase” value (Wistar rats; 200 mg/kg p.o. (dose given for 1620 only), increase over controls as percentage of base choleresis) was 135% and the Duration index (Wistar rats; 200 mg/kg p.o. (dose given for 1620 only), time for halving the maximum choleresis increase) was 240'. For the same compound, the Flow (Wistar rats; 200 mg/kg p.o., 0 (base hour)) was 2,46±0,12 ml/kg/h, the Flow (Wistar rats; 200 mg/kg p.o., 1h) was 5,53±0,30 ml/kg/h and the Flow (Wistar rats; 200 mg/kg p.o., 2h) was 5,78±0,29 ml/kg/h. The Flow (Wistar rats; 200 mg/kg p.o., 3h) was 5,02±0,34 ml/kg/h, the Flow (Wistar rats; 200 mg/kg p.o., 4h) was 4,77±0,57 ml/kg/h and the Flow (Wistar rats; 200 mg/kg p.o., 5h) was 4,19±0,25 ml/kg/h. For the same compound, the Flow (Wistar rats; 200 mg/kg p.o., 6h) was 3,39±0,14 ml/kg/h, the “ml of bile flow ± s.e.” value (Wistar rats; oral by gastric probe 25 mg/kg, 0 (base values)) was 2,6±0,20 ml and the “ml of bile flow ± s.e.” value (Wistar rats; oral by gastric probe 25 mg/kg, 1 h) was 3,2±0,14 ml. For the same compound, the “ml of bile flow ± s.e.” value (Wistar rats; oral by gastric probe 25 mg/kg, 2 h) was 2,7±0,10 ml, the “ml of bile flow ± s.e.” value (Wistar rats; oral by gastric probe 25 mg/kg, 3 h) was 2,6±0,21 ml and the “ml of bile flow ± s.e.” value (Wistar rats; oral by gastric probe 25 mg/kg, 4 h) was 1,9±0,11 ml. For the same compound, the “ml of bile flow ± s.e.” value (Wistar rats; oral by gastric probe 25 mg/kg, 5 h) was 1,6±0,20 ml, the “ml of bile flow ± s.e.” value (Wistar rats; oral by gastric probe 25 mg/kg, 6 h) was 1,6±0,21 ml and the “ml of bile flow ± s.e.” value (Wistar rats; oral by gastric probe 50 mg/kg, 0 (base values)) was 2,8±0,19 ml. The “ml of bile flow ± s.e.” value (Wistar rats; oral by gastric probe 50 mg/kg, 1 h) was 3,7±0,31 ml, the “ml of bile flow ± s.e.” value (Wistar rats; oral by gastric probe 50 mg/kg, 2 h) was 3,4±0,22 ml and the “ml of bile flow ± s.e.” value (Wistar rats; oral by gastric probe 50 mg/kg, 3 h) was 3,2±0,19 ml. For the same compound, the “ml of bile flow ± s.e.” value (Wistar rats; oral by gastric probe 50 mg/kg, 4 h) was 3,0±0,18 ml, the “ml of bile flow ± s.e.” value (Wistar rats; oral by gastric probe 50 mg/kg, 5 h) was 2,8±0,14 ml and the “ml of bile flow ± s.e.” value (Wistar rats; oral by gastric probe 50 mg/kg, 6 h) was 2,2±0,18 ml. The “ml of bile flow ± s.e.” value (Wistar rats; oral by gastric probe 100 mg/kg, 0 (base values)) was 2,5±0,16 ml, the “ml of bile flow ± s.e.” value (Wistar rats; oral by gastric probe 100 mg/kg, 1 h) was 4,8±0,26 ml and the “ml of bile flow ± s.e.” value (Wistar rats; oral by gastric probe 100 mg/kg, 2 h) was 3,7±0,31 ml. For the same compound, the “ml of bile flow ± s.e.” value (Wistar rats; oral by gastric probe 100 mg/kg, 3 h) was 3,5±0,20 ml, the “ml of bile flow ± s.e.” value (Wistar rats; oral by gastric probe 100 mg/kg, 4 h) was 3,2±0,32 ml and the “ml of bile flow ± s.e.” value (Wistar rats; oral by gastric probe 100 mg/kg, 5 h) was 2,9±0,22 ml. For the same compound, the “ml of bile flow ± s.e.” value (Wistar rats; oral by gastric probe 100 mg/kg, 6 h) was 2,7±0,23 ml, the LD50 [1, 3] was 1380 mg/kg and the LD50 [1, 4] was 1660 mg/kg. The “Tolerability on prolonged administration” value (rat) was “well tolerated”, the LD50 [2, 3] was 1340 mg/kg and the LD50 [2, 4] was 1720 mg/kg.
